Measurements taken from US20080076770A1, “SOLUBLE EPOXIDE HYDROLASE INHIBITORS” (Arete Therapeutics, Inc., priority 2006, published 2008).

Key:
[1] = system: soluble epoxide hydrolase (sEH); experiment: Fluorescent assay for mouse and human soluble epoxide hydrolase (CMNPC substrate); type: biochemical; settings: recombinant sEH, CMNPC substrate 5 μM, 30° C
Source text: Fluorescent Assay for Mouse and Human Soluble Epoxide Hydrolase
Recombinant mouse sEH (MsEH) and human sEH (HsEH) were produced in a baculovirus expression system as previously reported. Grant et al., J. Biol. Chem., 268:17628-17633 (1993); Beetham et al., Arch. Biochem. Biophys., 305:197-201 (1993). The expressed proteins were purified from cell lysate by affinity chromatography. Wixtrom et al., Anal. Biochem., 169:71-80 (1988). Protein concentration was quantified using the Pierce BCA assay using bovine serum albumin as the calibrating standard. The preparations were at least 97% pure as judged by SDS-PAGE and scanning densitometry. They contained no detectable esterase or glutathione transferase activity which can interfere with the assay. The assay was also evaluated with similar results in crude cell lysates or homogenate of tissues.
The IC50s for each inhibitor were according to the following procedure: Substrate: [drawing 66]
Cyano(2-methoxynaphthalen-6-yl)methyl (3-phenyloxiran-2-yl)methyl carbonate (CMNPC; Jones P. D. et. al.; Analytical Biochemistry 2005; 343: pp. 66-75)
Bis/Tris HCl 25 mM pH 7.0 containing 0.1 mg/mL of BSA (buffer A)
CMNPC at 0.25 mM in DMSO.
Mother solution of enzyme in buffer A (Mouse sEH at 6 μg/mL and Human sEH at 5 μg/mL).
Inhibitor dissolved in DMSO at the appropriate concentration.
In a black 96 well plate, fill all the wells with 150 μL of buffer A.
Add 2 μL of DMSO in well A2 and A3, and then add 2 μL of inhibitor solution in A1 and A4 through A 12.
Add 150 μL of buffer A in row A, then mix several time and transfer 150 μL to row B. Repeat this row operation up to row H. The 150 μL removed from row H go to the trash.
Add 20 μL of buffer A in column 1 and 2, then add 20 μL of enzyme solution to column 3 to 12.
Incubate the plate for 5 minutes in the plate reader at 30° C.
During incubation prepare the working solution of substrate by mixing 3.68 mL of buffer A (4×0.920 mL) with 266 μL (2×133 μL (2×133 μL) of substrate solution).
At t=0, add 30 μL of working substrate solution with multi-channel pipette labeled “Briggs 303” and start the reading ([S]final: 5 μM).
Read with ex: 330 nm (20 nm) and em: 465 nm (20 nm) every 30 second for 10 minutes. The velocities are used to analyze and calculate the IC50s.

| SMILES | melting point | % I ([1]; compound concentration 50 nM) | % I ([1]; compound concentration 500 nM) |
| --- | --- | --- | --- |
| O=C(Nc1ccc(-n2ccnc2)cc1)NC12CC3CC(CC(C3)C1)C2 [Compound 1, 1-Adamantan-1-yl-3-[4-(1H-imidazol-1-yl)-phenyl]-urea] | 272 to 276 °C |  |  |
| O=C(Nc1ccc(N2CCCC2=O)cc1)Nc1ccc(C(F)(F)F)cc1 [Compound 15] | 282 to 285 °C | 74% |  |
| O=C(Nc1ccc(-n2ccnc2)cc1)Nc1ccc(C(F)(F)F)cc1 [Compound 11, 1-(4-(1H-imidazol-1-yl)-phenyl)-3-(4-trifluoromethyl-phenyl)-urea] | 209 to 213 °C | 92% |  |
| O=C(Nc1ccc(-n2cnc(Cl)c2Cl)cc1)Nc1ccc(C(F)(F)F)cc1 [Compound 13, 1-[4-(4,5-dichloro-1H-imidazol-1-yl)-phenyl]-3-(4-trifluoromethyl-phenyl)-urea] | 221 to 224 °C | 95% |  |
| O=C(Nc1ccc(C(F)(F)F)cc1)Nc1cccc(N2CCCC2=O)c1 [Compound 20, 1-[3-(2-Oxo-pyrrolidin-1-yl)-phenyl]-3-(4-trifluoromethyl-phenyl)-urea] | 220 to 224 °C | 84% |  |
| O=C(Nc1ccc(C(F)(F)F)cc1)Nc1cccc(N2CCOCC2)c1 [Compound 19, 1-(3-Morpholin-4-yl-phenyl)-3-(4-trifluoromethyl-phenyl)-urea] | 240 to 244 °C | 79% |  |
| O=C(Nc1ccc(N2CCOCC2)cc1)Nc1ccc(C(F)(F)F)cc1 [Compound 14, 1-(4-Morpholin-4-yl-phenyl)-3-(4-trifluoromethyl-phenyl)-urea] | 228 to 232 °C | 87% |  |
| O=C(Nc1ccc(N2CCCC2=O)cc1)NC12CC3CC(CC(C3)C1)C2 [Compound 5, 1-Adamantan-1-yl-3-[4-(2-oxo-pyrrolidin-1-yl)-phenyl]-urea] | > 300 °C | 82% |  |
| Cc1nccn1-c1ccc(NC(=O)Nc2ccc(C(F)(F)F)cc2)cc1 [Compound 12, 1-[4-(2-methyl-1H-imidazol-1-yl)-phenyl]-3-(4-trifluoromethyl-phenyl)-urea] | 234 to 238 °C | 96% |  |
| O=C(Nc1cccc(N2CCCC2=O)c1)NC12CC3CC(CC(C3)C1)C2 [Compound 10, 1-Adamantan-1-yl-3-[3-(2-oxo-pyrrolidin-1-yl)-phenyl]-urea] | 239 to 242 °C |  | 88% |
